From US20230373985A1 (Origenis Gmbh, priority 2020, published 2023)

Assays:
[1] = target: T1, wt human JAK1, catalytic site (Homo sapiens, UniProt P23458); assay: HTRF KinEASE assay, JAK1; type: biochemical; settings: 2.5 μM ATP; read-out: IC50, Activity Toward JAK1
T1 construct: wt human JAK1, catalytic site; purchased ThermoFisher
Method in brief: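 Two-step HTRF KinEASE assay: compound, kinase/biotinylated TK substrate and ATP were incubated at least 30 min at room temperature. Antibody plus streptavidin-XL665 was then added and plates were read after 60 min. Inhibition was derived from emission ratios according to the kit protocol.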

[2] = target: T2, wt human TYK2, catalytic site (Homo sapiens, UniProt P29597); assay: HTRF KinEASE assay, TYK2; type: biochemical; settings: 1 μM ATP; read-out: IC50, Activity Toward TYK2
T2 construct: wt human TYK2, catalytic site; purchased SignalChem
T2 sequence (P29597 897-1176 limits assumed): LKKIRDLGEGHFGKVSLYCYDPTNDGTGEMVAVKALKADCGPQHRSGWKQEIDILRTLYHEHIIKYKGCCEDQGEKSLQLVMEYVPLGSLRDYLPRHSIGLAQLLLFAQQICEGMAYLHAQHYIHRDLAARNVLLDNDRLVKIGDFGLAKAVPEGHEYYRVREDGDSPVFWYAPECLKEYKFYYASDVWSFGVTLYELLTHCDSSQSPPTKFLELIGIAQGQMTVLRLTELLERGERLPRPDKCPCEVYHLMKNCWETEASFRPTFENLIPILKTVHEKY
Method in brief: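 HTRF KinEASE-TK readout with 1 μM biotinylated TK substrate in 1× kinase buffer, ≥30 min at room temperature, then antibody/streptavidin-XL665 detection for 60 min. TYK2 at 2 nM with 1 μM ATP; JAK2 at 1 nM with 100 μM ATP. Analysis uses emission ratios.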

T1 sequence (P23458 875-1153 limits assumed): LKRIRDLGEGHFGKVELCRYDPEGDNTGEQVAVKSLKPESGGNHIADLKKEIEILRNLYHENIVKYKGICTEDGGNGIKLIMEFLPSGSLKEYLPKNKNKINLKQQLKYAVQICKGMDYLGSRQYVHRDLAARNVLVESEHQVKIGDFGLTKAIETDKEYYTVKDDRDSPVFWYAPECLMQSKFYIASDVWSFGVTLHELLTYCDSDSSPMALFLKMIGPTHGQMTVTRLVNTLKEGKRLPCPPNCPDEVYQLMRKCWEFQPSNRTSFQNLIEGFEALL

NC(=O)c1nn(-c2c(Cl)cccc2Cl)cc1Nc1ccc(C(=O)N2CCN(C3CC3)CC2)nc1 [compound 364, 4-((6-(4-cyclopropylpiperazine-1-carbonyl)pyridin-3-yl)amino)-1-(2,6-dichlorophenyl)-1H-pyrazole-3-carboxamide]
IC50 [1]: 100 to 1000 nM | IC50 [2]: 10 to 100 nM

NC(=O)c1nn(-c2c(Cl)cccc2Cl)cc1Nc1ccc(C(=O)N2CCCCCC2)cc1 [compound 95, 4-((4-(azepane-1-carbonyl)phenyl)amino)-1-(2,6-dichlorophenyl)-1H-pyrazole-3-carboxamide]
IC50 [1]: 100 to 1000 nM | IC50 [2]: < 10 nM

N#CC1CN(C(=O)c2ccc(Nc3nn(-c4c(Cl)cccc4Cl)nc3C(N)=O)nc2)C1 [compound 153, 5-((5-(3-cyanoazetidine-1-carbonyl)pyridin-2-yl)amino)-2-(2,6-dichlorophenyl)-2H-1,2,3-triazole-4-carboxamide]
IC50 [1]: 10 to 100 nM | IC50 [2]: 10 to 100 nM

CC(C)Oc1ccc(Nc2cn(-c3c(Cl)cccc3Cl)nc2C(N)=O)cc1 [compound 261, 1-(2,6-dichlorophenyl)-4-((4-isopropoxyphenyl)amino)-1H-pyrazole-3-carboxamide]
IC50 [1]: 100 to 1000 nM | IC50 [2]: 100 to 1000 nM

CC(C)c1nnnn1-c1ccc(Nc2cn(-c3c(Cl)cccc3Cl)nc2C(N)=O)cn1 [compound 393, 1-(2,6-dichlorophenyl)-4-((6-(5-isopropyl-1H-tetrazol-1-yl)pyridin-3-yl)amino)-1H-pyrazole-3-carboxamide]
IC50 [1]: 100 to 1000 nM | IC50 [2]: 100 to 1000 nM

NC(=O)c1nn(-c2c(Cl)cccc2Cl)cc1Nc1ccc(-n2cnc(Cl)n2)cc1 [compound 79, 4-((4-(3-chloro-1H-1,2,4-triazol-1-yl)phenyl)amino)-1-(2,6-dichlorophenyl)-1H-pyrazole-3-carboxamide]
IC50 [1]: 100 to 1000 nM | IC50 [2]: 10 to 100 nM

Cc1ccc(=O)n(-c2ccc(Nc3cn(-c4c(Cl)cccc4Cl)nc3C(N)=O)cc2)n1 [compound 72, 1-(2,6-dichlorophenyl)-4-((4-(3-methyl-6-oxopyridazin-1(6H)-yl)phenyl)amino)-1H-pyrazole-3-carboxamide]
IC50 [1]: 100 to 1000 nM | IC50 [2]: 10 to 100 nM

CC(C)n1cnnc1-c1ccc(Nc2nn(-c3c(Cl)cccc3Cl)nc2C(N)=O)cc1 [compound 125, 2-(2,6-dichlorophenyl)-5-((4-(4-isopropyl-4H-1,2,4-triazol-3-yl)phenyl)amino)-2H-1,2,3-triazole-4-carboxamide]
IC50 [1]: 10 to 100 nM | IC50 [2]: 10 to 100 nM

Cc1csc2nnc(-c3ccc(Nc4cn(-c5c(Cl)cccc5Cl)nc4C(N)=O)cn3)n12 [compound 475, 1-(2,6-dichlorophenyl)-4-((6-(5-methylthiazolo[2,3-c][1,2,4]triazol-3-yl)pyridin-3-yl)amino)-1H-pyrazole-3-carboxamide]
IC50 [1]: 100 to 1000 nM | IC50 [2]: 100 to 1000 nM

Cc1cccc2nnc(-c3ccc(Nc4cn(-c5c(Cl)cccc5Cl)nc4C(N)=O)nc3)n12 [compound 429, 1-(2,6-dichlorophenyl)-4-((5-(5-methyl-[1,2,4]triazolo[4,3-a]pyridin-3-yl)pyridin-2-yl)amino)-1H-pyrazole-3-carboxamide]
IC50 [1]: 100 to 1000 nM | IC50 [2]: 10 to 100 nM

CCn1ncnc1-c1ccc(Nc2nn(-c3c(Cl)cccc3Cl)nc2C(N)=O)nc1 [compound 142, 2-(2,6-dichlorophenyl)-5-((5-(1-ethyl-1H-1,2,4-triazol-5-yl)pyridin-2-yl)amino)-2H-1,2,3-triazole-4-carboxamide]
IC50 [1]: 10 to 100 nM | IC50 [2]: 100 to 1000 nM

NC(=O)c1nn(-c2c(Cl)cccc2Cl)cc1Nc1ccc(-c2nc(C(F)(F)F)cn2CCO)nc1 [compound 373, 1-(2,6-dichlorophenyl)-4-((6-(1-(2-hydroxyethyl)-4-(trifluoromethyl)-1H-imidazol-2-yl)pyridin-3-yl)amino)-1H-pyrazole-3-carboxamide]
IC50 [1]: 100 to 1000 nM | IC50 [2]: 10 to 100 nM

NC(=O)c1nn(-c2c(Cl)cccc2Cl)cc1Nc1ccc(-n2nc(C(F)(F)F)nc2CO)nc1 [compound 385, 1-(2,6-dichlorophenyl)-4-((6-(5-(hydroxymethyl)-3-(trifluoromethyl)-1H-1,2,4-triazol-1-yl)pyridin-3-yl)amino)-1H-pyrazole-3-carboxamide]
IC50 [1]: 100 to 1000 nM | IC50 [2]: 10 to 100 nM

NC(=O)c1nn(-c2c(Cl)cccc2Cl)nc1Nc1ccc(C(=O)N2CCCC2)cn1 [compound 137, 2-(2,6-dichlorophenyl)-5-((5-(pyrrolidine-1-carbonyl)pyridin-2-yl)amino)-2H-1,2,3-triazole-4-carboxamide]
IC50 [1]: 10 to 100 nM | IC50 [2]: 10 to 100 nM

NC(=O)c1nn(-c2c(Cl)cccc2Cl)cc1Nc1ccc(C(=O)N2CCCC2)nc1 [compound 358, 1-(2,6-dichlorophenyl)-4-((6-(pyrrolidine-1-carbonyl)pyridin-3-yl)amino)-1H-pyrazole-3-carboxamide]
IC50 [1]: 100 to 1000 nM | IC50 [2]: 10 to 100 nM

COCc1nc(C(F)(F)F)nn1-c1ccc(Nc2cn(-c3c(Cl)cccc3Cl)nc2C(N)=O)cc1 [compound 281, 1-(2,6-dichlorophenyl)-4-((4-(5-(methoxymethyl)-3-(trifluoromethyl)-1H-1,2,4-triazol-1-yl)phenyl)amino)-1H-pyrazole-3-carboxamide]
IC50 [1]: 100 to 1000 nM | IC50 [2]: < 10 nM

CC(C)(C)C(=O)c1ccc(Nc2cn(-c3c(Cl)cccc3Cl)nc2C(N)=O)cc1 [compound 41, 1-(2,6-dichlorophenyl)-4-((4-pivaloylphenyl)amino)-1H-pyrazole-3-carboxamide]
IC50 [1]: 100 to 1000 nM | IC50 [2]: 100 to 1000 nM

NC(=O)c1nn(-c2c(Cl)cccc2Cl)cc1Nc1ccc(-n2nnc3c2CCCC3)cc1 [compound 73, 1-(2,6-dichlorophenyl)-4-((4-(4,5,6,7-tetrahydro-1H-benzo[d][1,2,3]triazol-1-yl)phenyl)amino)-1H-pyrazole-3-carboxamide]
IC50 [1]: 100 to 1000 nM | IC50 [2]: 10 to 100 nM

NC(=O)c1nn(-c2c(Cl)cccc2Cl)nc1Nc1ccc(C(=O)N2CCC(F)C2)cn1 (stereo in doubt) [compound 130, (S)-2-(2,6-dichlorophenyl)-5-((5-(3-fluoropyrrolidine-1-carbonyl)pyridin-2-yl)amino)-2H-1,2,3-triazole-4-carboxamide]
IC50 [1]: 100 to 1000 nM | IC50 [2]: 10 to 100 nM

Cn1nnnc1-c1ccc(Nc2nn(-c3c(Cl)cccc3Cl)nc2C(N)=O)nc1 [compound 158, 2-(2,6-dichlorophenyl)-5-((5-(1-methyl-1H-tetrazol-5-yl)pyridin-2-yl)amino)-2H-1,2,3-triazole-4-carboxamide]
IC50 [1]: 10 to 100 nM | IC50 [2]: 10 to 100 nM

Cc1cc2nnc(-c3ccc(Nc4cn(-c5c(Cl)cccc5Cl)nc4C(N)=O)cn3)n2c(C)n1 [compound 470, 1-(2,6-dichlorophenyl)-4-((6-(5,7-dimethyl-[1,2,4]triazolo[4,3-c]pyrimidin-3-yl)pyridin-3-yl)amino)-1H-pyrazole-3-carboxamide]
IC50 [1]: 100 to 1000 nM | IC50 [2]: 100 to 1000 nM

CN1CCn2c(nnc2-c2ccc(Nc3cn(-c4c(Cl)cccc4Cl)nc3C(N)=O)cc2)C1 [compound 269, 1-(2,6-dichlorophenyl)-4-((4-(7-methyl-5,6,7,8-tetrahydro-[1,2,4]triazolo[4,3-a]pyrazin-3-yl)phenyl)amino)-1H-pyrazole-3-carboxamide]
IC50 [1]: 10 to 100 nM | IC50 [2]: 10 to 100 nM

Cn1cc(C(F)(F)F)nc1-c1ccc(Nc2cn(-c3c(Cl)cccc3Cl)nc2C(N)=O)cc1 [compound 294, 1-(2,6-dichlorophenyl)-4-((4-(1-methyl-4-(trifluoromethyl)-1H-imidazol-2-yl)phenyl)amino)-1H-pyrazole-3-carboxamide]
IC50 [1]: 10 to 100 nM | IC50 [2]: < 10 nM

COCCn1cc(C(F)(F)F)nc1-c1ccc(Nc2cn(-c3c(Cl)cccc3Cl)nc2C(N)=O)cc1 [compound 307, 1-(2,6-dichlorophenyl)-4-((4-(1-(2-methoxyethyl)-4-(trifluoromethyl)-1H-imidazol-2-yl)phenyl)amino)-1H-pyrazole-3-carboxamide]
IC50 [1]: 100 to 1000 nM | IC50 [2]: 10 to 100 nM

Cn1ccc(Nc2cn(-c3c(Cl)cccc3Cl)nc2C(N)=O)cc1=O [compound 381, 1-(2,6-dichlorophenyl)-4-((1-methyl-2-oxo-1,2-dihydropyridin-4-yl)amino)-1H-pyrazole-3-carboxamide]
IC50 [1]: 100 to 1000 nM | IC50 [2]: 100 to 1000 nM

Cc1cc(C)n(-c2ccc(Nc3cn(-c4c(Cl)cccc4Cl)nc3C(N)=O)cn2)n1 [compound 398, 1-(2,6-dichlorophenyl)-4-((6-(3,5-dimethyl-1H-pyrazol-1-yl)pyridin-3-yl)amino)-1H-pyrazole-3-carboxamide]
IC50 [1]: 100 to 1000 nM | IC50 [2]: 100 to 1000 nM

Cn1ccc(=O)n1-c1ccc(Nc2cn(-c3c(Cl)cccc3Cl)nc2C(N)=O)cc1 [compound 77, 1-(2,6-dichlorophenyl)-4-((4-(2-methyl-5-oxo-2,5-dihydro-1H-pyrazol-1-yl)phenyl)amino)-1H-pyrazole-3-carboxamide]
IC50 [1]: 100 to 1000 nM | IC50 [2]: 100 to 1000 nM

Cc1cc(C)n(-c2ccc(Nc3cn(-c4c(Cl)cccc4Cl)nc3C(N)=O)cc2)n1 [compound 216, 1-(2,6-dichlorophenyl)-4-((4-(3,5-dimethyl-1H-pyrazol-1-yl)phenyl)amino)-1H-pyrazole-3-carboxamide]
IC50 [1]: 10 to 100 nM | IC50 [2]: 10 to 100 nM
